Patent US11013723B1, “Solid forms of a thiazolidinone compound, compositions and methods of use thereof” (Celgene Corporation, priority 2018, dated 2021)
Peptide text beside a SMILES is read from it.

Test: Slurry ripening comparative co-crystal screening (solid form outcome)
Format: physicochemical
Settings: Compound 1 + coformer, cycled 25° C./5° C., 10 days; for Slurry ripening result, EtOAc: EtOAc saturated with coformer; for Slurry ripening result, MTBE: MTBE saturated with coformer; for Slurry ripening result, EtOH: EtOH saturated with coformer
Procedure: In certain embodiments, for example, the method may comprise slurry ripening. […] In certain embodiments, the solvent is 1-butanol or toluene.
In certain embodiments, for example, the saturated coformer solution may be prepared by 1) combining the quantity of coformer in a quantity (for example, about 2 mL) of solvent; 2) mixing the combined quantities at a predetermined temperature (for example 23° C.) for a predetermined period of time (for example at least about 16 hours or less than about 16 hours) to form a suspension; and 3) filtering the suspension (for example filtering the suspension through an 0.2 micron PTFE filter if the solvent is an organic solvent or an 0.45 micron filter if the solvent is an organic solvent mixed with water). In certain embodiments, for example, the solvent may be selected from the group consisting of ethyl alcohol, a solution of ethyl acetate and heptane (for example a solution having an ethyl acetate to heptane at ratio of 2:8 v/v), a solution of acetonitrile and water (for example a solution having a acetonitrile to water ratio of 1:9 v/v), and t-butyl methyl ether (MTBE), or a combination of two or more of the foregoing.
A series of comparative crystallization experiments were conducted with 41 potential coformers and 7 solvents by two different methods.

Compound | Slurry ripening result, EtOAc | Slurry ripening result, MTBE | Slurry ripening result, EtOH | also measured
O=C(O)c1ccc2ccccc2c1O [1-Hydroxy-2-Naphthoic acid] | PCH | A* |  | 
CC1(C(=O)O)CCC(C(=O)O)C1(C)C (stereo not drawn) [(+)-Camphoric acid] |  | PCH |  | 
O=C(O)[C@H](O)[C@@H](O)C(=O)O [(+)-L-Tartaric acid] | F* |  |  | 
COC(=O)[C@H](Cc1ccccc1)NC(=O)[C@@H](N)CC(=O)O [Aspartame] (H-Asp-Phe-OMe) | A + F |  |  | 
NC(=O)c1ccncc1 [Isonicotinamide] |  |  | B* | 
O=C(O)[C@@H](O)c1ccccc1 [L-(+)-Mandelic acid] |  | PCH |  | 
O=C(O)CC(=O)O [Malonic acid] |  |  |  | Slurry ripening result, Toluene (Toluene saturated with coformer): F*
NC(=O)c1cccnc1 [Nicotinamide] |  |  | PCH | 
Oc1cccc(O)c1O [Pyrogallol] |  | PCH |  | 
O=c1c(O)c(-c2ccc(O)c(O)c2)oc2cc(O)cc(O)c12 [Quercetin] |  |  | PCH | 
NC(N)=O [Urea] |  | PCH |  | 
(−)-L-Malic acid | PCH |  | PCH | 
